The source of these data is patent publication US20230416262A1, “TRPML MODULATORS” (Casma Therapeutics, Inc., priority 2020, published 2023).

Each structure is given as a SMILES string.

This experiment concerns TFEB. Put plainly: TFEB nuclear translocation assay. The class given is cell-based. Conditions: Homo sapiens; HeLa wt or HeLa TRPML1 KO cells, treated for 2 hrs; ratio of nuclear to ring-region TFEB intensity. The protocol:
For the TFEB nuclear translocation assay, HeLa wt or HeLa TRPML1 KO cells were plated at 2700 cells/well into black-walled, 384-well Cell carrier Ultra tissue culture treated plates in complete media and incubated overnight. The next day, cells are treated for 2 hrs with compounds and incubated at 37° C. Cells were then fixed for 30 minutes at room temperature in 4% final PFA and washed five times with 90 μL PBS. PBS is aspirated from the wells and the cells are blocked with 7.5 μL blocking buffer (1.1 PBS/Odyssey block buffer containing 0.1% triton x-100 and 1% goat serum). After 30-60 minutes of block, 7.5 μL of primary anti-TFEB (rabbit) antibody is added for a final dilution of 1:200 antibody in 15 μL blocking buffer. Plates are incubated overnight at 4° C. The following day, plates are washed again into PBS, 90 μL with 5 washes, all PBS is aspirated from the wells and the cells are incubated for 1 hr in 1:1000 goat-anti rabbit Alexa 488 secondary antibody, also containing 10 μg/mL Hoechst 33342. After the 1 hr RT incubation, plates are washed a final time into PBS, sealed with foil and imaged with an automated epifluorescence microscopy (PerkinElmer Operetta CLS). Four different fields were imaged per well using ×20 magnification for DAPI and FITC filter sets. Images were quantified using PerkinElmer Harmony software, briefly: apply flatfield correction (basic/advanced) for input images. Use the Find Nuclei building block with channel set at Hoechst to find the nuclei. Use the Find cytoplasm building block with channel set to Alexa 488 to find the cytoplasm. Use select cell region with Channel set at Alexa 488 and region of interest as Nuclei and define outer border at 0 μm and inner at 45 μm to cover complete nuclei. Use select cell region with Channel set at Alexa 488 and region of interest as ring region and define outer border at −5 μm and inner at 0 μm to define a ring around the nucleus. Use the find calculate intensity parameter to calculate intensity of the nuclear region and the ring region. Define results as Number of nuclei and ratio of A/B where A is Intensity of Nuclei and B is intensity of the ring region.
Consider `O=S(=O)(c1ccc(Br)cc1)N1CC2(CCCC2)c2ccccc21` [Compound I-32, 1′-(4-bromobenzenesulfonyl)-1′,2′-dihydrospiro[cyclopentane-1,3′-indole]], for which the EC50 is at least 10 µM.

Turning to `O=S(=O)(c1ccc(C2CC2)s1)N1CC2(CCCC2)c2ccccc21` [Compound I-33, 1′-[(5-cyclopropylthiophen-2-yl)sulfonyl]-1′,2′-dihydrospiro[cyclopentane-1,3′-indole]], the EC50 was at least 10 µM.

In the case of `O=S(=O)(Cc1ccc2c(c1)COCC2)N1CC2(CCCC2)c2ccccc21` [Compound I-34, 1′-[(3,4-dihydro-1H-2-benzopyran-7-yl)methanesulfonyl]-1′,2′-dihydrospiro[cyclopentane-1,3′-indole]], the EC50 lay within 2.01 to 8 µM.

Turning to `O=S(=O)(c1ccc2c(c1)COC2)N1CC2(CCCC2)c2ccccc21` [Compound I-36, 1′-(1,3-dihydro-2-benzofuran-5-sulfonyl)-1′,2′-dihydrospiro[cyclopentane-1,3′-indole]], the EC50 was at least 10 µM.

For the compound `O=S(=O)(c1ccc2c(c1)COCC2)N1CC2(CCCC2)c2ccccc21` [Compound I-37], the concentration for a half-maximal effect (EC50) was in the range of 2.01 to 8 µM.

With `O=S(=O)(CC(F)c1ccccc1)N1CC2(CCCC2)c2ccccc21` (stereo not drawn) [Compound I-38, 1′-(2-fluoro-2-phenylethanesulfonyl)-1′,2′-dihydrospiro[cyclopentane-1,3′-indole]], the concentration giving a half-maximal response (EC50) was at least 10 µM.

In the case of `O=S(=O)(c1cnc(-c2ccccc2)o1)N1CC2(CCCC2)c2ccccc21` [Compound I-39, 1′-[(2-phenyl-1,3-oxazol-5-yl)sulfonyl]-1′,2′-dihydrospiro[cyclopentane-1,3′-indole]], the EC50 is at least 10 µM.

For the compound `O=S(=O)(C1=Cc2ccccc2OCC1)N1CC2(CCCC2)c2ccccc21` [Compound I-40, 1′-(2,3-dihydro-1-benzoxepine-4-sulfonyl)-1′,2′-dihydrospiro[cyclopentane-1,3′-indole]], the EC50 was in the range of 2.01 to 8 µM.

As for `O=S(=O)(C1=Cc2ccccc2OC1)N1CC2(CCCC2)c2ccccc21` [Compound I-41, 1′-(2H-chromene-3-sulfonyl)-1′,2′-dihydrospiro[cyclopentane-1,3′-indole]], the EC50 was in the range of 8.01 to 9.99 µM.

As to `O=S(=O)(C1=Cc2ccccc2CC1)N1CC2(CCCC2)c2ccccc21` [Compound I-42, 1′-(3,4-dihydronaphthalene-2-sulfonyl)-1′,2′-dihydrospiro[cyclopentane-1,3′-indole]], the EC50 is 2.01 to 8 µM.

Consider `O=S(=O)(c1ccn(C2CC2(F)F)n1)N1CC2(CCCC2)c2ccccc21` (stereo not drawn) [Compound I-43, 1′-{[1-(2,2-difluorocyclopropyl)-1H-pyrazol-3-yl]sulfonyl}-1′,2′-dihydrospiro[cyclopentane-1,3′-indole]], for which the EC50 was at least 10 µM.

On to `Cc1ccc(CS(=O)(=O)N2CC3(CCCC3)c3ccccc32)c(F)c1` [Compound I-44, 1′-[(2-fluoro-4-methylphenyl)methanesulfonyl]-1′,2′-dihydrospiro[cyclopentane-1,3′-indole]], for which the EC50 lay within 2.01 to 8 µM.

As to `O=S(=O)(Cc1ccc(C(F)F)cc1)N1CC2(CCCC2)c2ccccc21` [Compound I-45, 1′-{[4-(difluoromethyl)phenyl]methanesulfonyl}-1′,2′-dihydrospiro[cyclopentane-1,3′-indole]], the EC50 fell in the range of 2.01 to 8 µM.

Consider `O=S(=O)(Cc1cccc(Cl)c1)N1CC2(CCCC2)c2ccccc21` [Compound I-46, 1′-[(3-chlorophenyl)methanesulfonyl]-1′,2′-dihydrospiro[cyclopentane-1,3′-indole]], for which the EC50 lay in the range of 2.01 to 8 µM.

Consider `Cc1ccc(F)c(CS(=O)(=O)N2CC3(CCCC3)c3ccccc32)c1` [Compound I-47, 1′-[(2-fluoro-5-methylphenyl)methanesulfonyl]-1′,2′-dihydrospiro[cyclopentane-1,3′-indole]], for which the EC50 was in the range of 2.01 to 8 µM.

In the case of `O=S(=O)(c1cccc(C2CC2(F)F)c1)N1CC2(CCCC2)c2ccccc21` (stereo not drawn) [Compound I-49, 1′-[3-(2,2-difluorocyclopropyl)benzenesulfonyl]-1′,2′-dihydrospiro[cyclopentane-1,3′-indole]], the EC50 was 2.01 to 8 µM.

As for `CC(C)(O)c1ccc(S(=O)(=O)N2CC3(CCCC3)c3ccccc32)cc1` [Compound I-50, 2-[4-({1′,2′-dihydrospiro[cyclopentane-1,3′-indol]-1′-yl}sulfonyl)phenyl]propan-2-ol], the concentration giving a half-maximal response (EC50) was at least 10 µM.

On to `CC1(C)Cc2cc(S(=O)(=O)N3CC4(CCCC4)c4ccccc43)ccc2C1=O` [Compound I-51, 5-({1′,2′-dihydrospiro[cyclopentane-1,3′-indol]-1′-yl}sulfonyl)-2,2-dimethyl-2,3-dihydro-1H-inden-1-one], for which the EC50 lay within 8.01 to 9.99 µM.

As to `CN(c1ccc(S(=O)(=O)N2CC3(CCCC3)c3ccccc32)cc1)S(C)(=O)=O` [Compound I-52, N-[4-({1′,2′-dihydrospiro[cyclopentane-1,3′-indol]-1′-yl}sulfonyl)phenyl]-N-methylmethanesulfonamide], the EC50 was at least 10 µM.

With `COC(=O)C(C)(C)c1ccc(S(=O)(=O)N2CC3(CCCC3)c3ccccc32)cc1` [Compound I-53, methyl 2-[4-({1′,2′-dihydrospiro[cyclopentane-1,3′-indol]-1′-yl}sulfonyl)phenyl]-2-methylpropanoate], the EC50 is at least 10 µM.

With `CC(C)(CO)c1ccc(S(=O)(=O)N2CC3(CCCC3)c3ccccc32)cc1` [Compound I-54, 2-[4-({1′,2′-dihydrospiro[cyclopentane-1,3′-indol]-1′-yl}sulfonyl)phenyl]-2-methylpropan-1-ol], the EC50 is at least 10 µM.

Take `CN1Cc2cc(S(=O)(=O)N3CC4(CCCC4)c4ccccc43)ccc2C1=O` [Compound I-55, 5-({1′,2′-dihydrospiro[cyclopentane-1,3′-indol]-1′-yl}sulfonyl)-2-methyl-2,3-dihydro-1H-isoindol-1-one]: the half-maximal effective concentration (EC50) is at least 10 µM.

For the compound `COC(C)(C)c1ccc(S(=O)(=O)N2CC3(CCCC3)c3ccccc32)cc1` [Compound I-56, 1′-[4-(2-methoxypropan-2-yl)benzenesulfonyl]-1′,2′-dihydrospiro[cyclopentane-1,3′-indole]], the EC50 was at least 10 µM.

Take `CC1(C)OCc2ccc(S(=O)(=O)N3CC4(CCCC4)c4ccccc43)cc21` [Compound I-58, 1′-[(3,3-dimethyl-1,3-dihydro-2-benzofuran-5-yl)sulfonyl]-1′,2′-dihydrospiro[cyclopentane-1,3′-indole]]: the concentration giving a half-maximal response (EC50) lay in the range of 2.01 to 8 µM.

On to `O=S(=O)(c1ccc2c(c1)CCOC2)N1CC2(CCCC2)c2ccccc21` [Compound I-59, 1′-(3,4-dihydro-1H-2-benzopyran-6-sulfonyl)-1′,2′-dihydrospiro[cyclopentane-1,3′-indole]], for which the EC50 is at least 10 µM.

On to `COC(C)(C)c1cccc(S(=O)(=O)N2CC3(CCCC3)c3ccccc32)c1` [Compound I-60, 1′-[3-(2-methoxypropan-2-yl)benzenesulfonyl]-1′,2′-dihydrospiro[cyclopentane-1,3′-indole]], for which the EC50 lay within 8.01 to 9.99 µM.

As for `CC(C)(O)c1cccc(S(=O)(=O)N2CC3(CCCC3)c3ccccc32)c1` [Compound I-61, 2-[3-({1′,2′-dihydrospiro[cyclopentane-1,3′-indol]-1′-yl}sulfonyl)phenyl]propan-2-ol], the EC50 is at least 10 µM.

For the compound `COC(=O)c1ccc(CS(=O)(=O)N2CC3(CCCC3)c3ccccc32)cc1` [Compound I-62, methyl 4-[({1′,2′-dihydrospiro[cyclopentane-1,3′-indol]-1′-yl}sulfonyl)methyl]benzoate], the EC50 is at least 10 µM.

`CS(=O)(=O)Nc1ccc(S(=O)(=O)N2CC3(CCCC3)c3ccccc32)cc1` [Compound I-63, N-[4-({1′,2′-dihydrospiro[cyclopentane-1,3′-indol]-1′-yl}sulfonyl)phenyl]methanesulfonamide]: the EC50 was at least 10 µM.

For the compound `O=S(=O)(c1ccc2c(c1)OC1(CCC1)O2)N1CC2(CCCC2)c2ccccc21` [Compound I-64, 1′-({spiro[1,3-benzodioxole-2,1′-cyclobutan]-6-yl}sulfonyl)-1′,2′-dihydrospiro[cyclopentane-1,3′-indole]], the EC50 is 2.01 to 8 µM.

On to `CS(=O)(=O)c1ccc(S(=O)(=O)N2CC3(CCN(c4ccc(Cl)cc4F)CC3)c3ccccc32)cc1` [Compound I-65, 1′-(4-chloro-2-fluorophenyl)-1-((4-(methylsulfonyl)phenyl)sulfonyl)spiro[indoline-3,4′-piperidine]], for which the 50% effective concentration (EC50) is at most 2 µM.

Consider `CC1(C)OCc2cc(S(=O)(=O)N3CC4(CCCC4)c4ccccc43)ccc21` [Compound I-66, 1′-((1,1-dimethyl-1,3-dihydroisobenzofuran-5-yl)sulfonyl)spiro[cyclopentane-1,3′-indoline]], for which the EC50 is 2.01 to 8 µM.

Consider `CN(C)S(=O)(=O)c1ccc(S(=O)(=O)N2CC3(CCOCC3)c3ccccc32)cc1` [Compound I-69, 4-({1,2-dihydrospiro[indole-3,4′-oxan]-1-yl}sulfonyl)-N,N-dimethylbenzene-1-sulfonamide], for which the EC50 was at most 2 µM.

Usually EC50 stands for the concentration at which the effect is half-maximal.
